Reference: patent publication EP2699223B1, “NEW COSMETIC USES OF GHK TRIPEPTIDE” (Sederma, priority 2011, dated 2012)
Peptide text beside a SMILES is read from it. * marks the point of attachment. Biotin = O=C1N[C@H]2[C@H](CS[C@H]2CCCCC(=O)*)N1

Columns and labels:
Format in all cases: in vivo, female volunteers
lashes [1] = assay: Lash diameter by photo measurement and image analysis, same double-blind clinical study; settings: after 30 days of daily use; 2% in a basic mascara formula
Method: (§1) Lashes were photographed in a precise manner that could be reproduced and at a special angle so that lashes could be viewed perfectly. An image analysis was then performed on these photographs to quantify lash length and diameter in the central segment of the lids of female volunteers.
(§2) This was a double-blind study that employed non-invasive methods. 30 female volunteers used two mascaras: 1) VOLUMISING BLACK MASCARA (according to Example 1) containing 0.00066% of Biot-GHK and 0.01% of panthenol on one eye and 2) its placebo on the other eye (same formula without the active ingredients of the invention).
The measurements were performed before application (TO) then after 15 and 30 days of daily application. Application during the eight hours preceding a measurement day was not allowed.
The volunteers had to apply each mascara as follows: 3 brush strokes to the outside lashes, 4 brush strokes to the central lashes and 3 brush strokes to the interior lashes. […]
Once the head was correctly positioned on an appropriate mechanism, the lashes were frontally photographed using a Reflex Nikon D300 (12.3 megapixel) digital camera with a "macro" (60 mm F/2.8 GED) lens and a flash. The images were analysed with special software. […] The lengths and diameters were measured on the lashes of segments S2, S3 and S4 (5 lashes per segment) on each side. […]

lashes [2] = assay: Blind clinical evaluation of lash photos by 3 trained experts (lengthening, thickening); settings: summary statement
Method: Concurrent to this quantitative metrological study, two other evaluations were performed: one clinical evaluation in which trained experts scored photos and another evaluation in which the volunteers themselves evaluated the perceived effects using a multi-item questionnaire.
as §2
Table 3: Blind evaluation performed by 3 trained experts on lash lengthening in photos of 30 volunteers.
Table 4: Blind evaluation performed by 3 trained experts on increased lash diameter in photos of 30 volunteers

lashes [3] = assay: Lash length by photo measurement and image analysis, double-blind clinical study, mascara on one eye versus placebo on the other; settings: length and diameter, 15 and 30 days
Method: The purpose of the clinical study was to evaluate the following among volunteers: • lash lengthening, • lash thickening, • reinforcement of lash anchorage (decrease in lash loss during mascara removal).
as §1, §2
The measurements were performed before application (TO) then after 15 and 30 days of daily application. Application during the eight hours preceding a measurement day was not allowed. […]
Once the head was correctly positioned on an appropriate mechanism, the lashes were frontally photographed using a Reflex Nikon D300 (12.3 megapixel) digital camera with a "macro" (60 mm F/2.8 GED) lens and a flash. The images were analysed with special software. […] The lengths and diameters were measured on the lashes of segments S2, S3 and S4 (5 lashes per segment) on each side.

SMILES: NCCCC[C@H](NC(=O)[C@H](Cc1c[nH]cn1)NC(=O)CNC(=O)CCCC[C@@H]1SC[C@@H]2NC(=O)N[C@@H]21)C(=O)O [Biot-GHK peptide, Biotinoyl tripeptide-1] (Biotin-Gly-His-Lys-OH)
- Increase printed as "volume" (lashes [1]): +14.2 mm^3
- Subjects in whom the variation was observed (first of "respectively": length) (lashes [2]): 87%
- Subjects in whom the variation was observed (second of "respectively": diameter, printed volume) (lashes [2]): 73%
- Result higher than the increase of parameters with the placebo (lashes [3]): about 60%
